Assays:
[1] = test system: FECH knockdown CD34+ cells; test: PPIX accumulation in FECH knockdown CD34+ cells (CD34+-EPP cells), LC-MS/MS; assay type: cell-based, human; settings: for effect on PPIX accumulation / IC50: FECH knockdown CD34+ cells; for IC50: Homo sapiens, treated 9 days (day 8 to day 16), LC-MS/MS, read-out: IC50 on PPIX levels
From the text: To investigate the effects of GlyT1 inhibitors in human hematopoietic stem cells with an EPP phenotype, lentiviral vectors expressing shRNA of FECH were constructed (Table 2) and transduced at 25 MOI into human cord blood-CD34+ cells purchased from Stemexpress.
Specifically, the purchased CD34+ cells were defrosted and expanded for eight days in serum-free Hematopoietic Progenitor Expansion Medium XF (C-28021) supplemented with Cytokine Mix E (human TPO, SCF, FLT-3 ligand and IL-3, #C-39891). During the expansion phase, CD34 expression was monitored, cells were frozen in a serum-free DMSO-based freezing medium (CryoStor® CS2).
For FECH knock-down experiments, cells expanded from a single vial were used to avoid donor heterogeneity. Freshly defrosted cells were expanded for three days (day 0-day 3) and infected with lentivirus expressing shControl or shFECH at an MOI of 25 in the presence of polybrene. After transduction, shRNA expressing cells were selected in the presence of puromycin (1 ug/ml) for four days (day 4-day 7). FECH expression levels were determined in the shFECH transfected CD34+ cells at Day 8. FECH mRNA level was reduced by ˜80% (0.196±0.307) in the shFECH transfected CD34+ cells (FIG. 5A). FECH protein level was reduced by ˜62% in the shFECH transfected CD34+ cells (FIG. 5B and FIG. 5C).
In order to evaluate the effect of GlyT1 inhibitor on PPIX accumulation in CD34^+-EPP cells, the cells were treated with serial dilutions of the compounds or DMSO control in the erythroid differentiation medium for 9 days (day 8 to day 16). The differentiated erythroid cells were harvested at day 16 and assayed for the intracellular PPIX levels by LC-MS/MS.

K562 clone 10-9 cells = test: PPIX accumulation in K562-EPP cellular model (Clone 10-9), flow cytometry; assay type: cell-based; settings: for effect on PPIX accumulation by flow cytometry: 96 hours; for IC50: Homo sapiens, 96 hours at 37° C., flow cytometry, read-out: IC50 of inhibition of PPIX accumulation
Method: CRISPR-Cas9 technology was utilized to generate genetic changes in the Ferrochelatase gene (FECH). Guide RNA sgRNA-1 was designed to target Exon 3 of FECH genetic locus and generate a knockout allele at the FECH genomic locus by introduction of indels that lead to frameshift of the coding sequence and premature stop codon. The K562 cells were cultured in IMDM medium supplemented with 10% fetal bovine serum (FBS), 1% penicillin/streptomycin (PS). CRISPR Cas9 RNP complex with guide RNA (gRNA) was electroporated in K562 cells. The transfection was performed using 4D Nucleofector, SF kit, FF-120 program. The transfected cells were plated at densities of 0.5 cells per well in 96-well plates in complete medium. Cells were allowed to grow until colonies were visible in the well. The K562-EPP subclones were individually expanded and screened for the FECH knockout genotype by PCR of genomic DNA and for the expression of the FECH gene by RT-PCR. K562-Clone 10 is determined to be heterozygous for the FECH knockout allele and has reduced expression level of FECH mRNA than the parental K562 cell line.
In order to introduce the IVS3-T48C mutation into the wild-type allele of the FECH gene in K562-Clone10, CRISPR Cas9 RNP complex with guide RNA sgRNA-2 and single stranded DNA donor were electroporated into the K562-clonel0 that is already heterozygous for the FECH knockout allele generated from the CRISPR-Cas9 gene editing event described in the previous paragraph. sgRNA-2 was designed to target Intron 3, close to the target site IVS3-T48. Similarly, single-cell clones were isolated from this round of gene editing by limited dilution. TA cloning and Sanger sequencing were used to confirm single-cell clones and genotypes. This procedure generated K562 Clone10-IVS-Clone9 (Clone 10-9), which carries the FECH knockout allele in trans with the IVS3-T48C mutation in the other FECH allele.
The effect of GlyT1 inhibitors on reducing PPIX accumulation was evaluated in the K562-EPP cellular model, Clone 10-9. 900 μL of K562 clone 10-9 cells at 2×10^5 cells/mL in IMDM media with 10% FBS and 1% PS were plated into a 24-well plate. After 24-hour incubation, 100 μL of compound in DMSO/media was added in different concentration. The final concentration of DMSO was 0.1%. The compound was incubated for 96 hours at 37° C. Cell viability and cell count were measured by Vi-CELL XR Complete System. Finally, the effect of the compound on PPIX level was determined by flow cytometry.

| SMILES | PPIX pmol/million cells ([1]; 0.46 nM, sample 1) [pmol/million cells] | PPIX pmol/million cells ([1]; 0.46 nM, sample 2) [pmol/million cells] | PPIX pmol/million cells ([1]; 1.37 nM, sample 1) [pmol/million cells] | PPIX pmol/million cells ([1]; 1.37 nM, sample 2) [pmol/million cells] | PPIX pmol/million cells ([1]; 4.12 nM, sample 1) [pmol/million cells] | PPIX pmol/million cells ([1]; 4.12 nM, sample 2) [pmol/million cells] | PPIX pmol/million cells ([1]; 12.35 nM, sample 1) [pmol/million cells] | PPIX pmol/million cells ([1]; 12.35 nM, sample 2) [pmol/million cells] | PPIX pmol/million cells ([1]; 37.04 nM, sample 1) [pmol/million cells] | PPIX pmol/million cells ([1]; 37.04 nM, sample 2) [pmol/million cells] | PPIX pmol/million cells ([1]; 111.11 nM, sample 1) [pmol/million cells] | PPIX pmol/million cells ([1]; 111.11 nM, sample 2) [pmol/million cells] | PPIX pmol/million cells ([1]; 333.33 nM, sample 1) [pmol/million cells] | PPIX pmol/million cells ([1]; 333.33 nM, sample 2) [pmol/million cells] | PPIX pmol/million cells ([1]; 1000.00 nM, sample 1) [pmol/million cells] | PPIX pmol/million cells ([1]; 1000.00 nM, sample 2) [pmol/million cells] | effect on PPIX accumulation [1] | IC50 [1] [nM] | effect on PPIX accumulation by flow cytometry (K562 clone 10-9 cells) | IC50 (K562 clone 10-9 cells) [nM] |
| --- | --- | --- | --- | --- | --- | --- | --- | --- | --- | --- | --- | --- | --- | --- | --- | --- | --- | --- | --- | --- |
| C[C@@H](Oc1ccc(S(C)(=O)=O)cc1C(=O)N1C[C@@H]2C[C@]2(c2cc(C(F)(F)F)on2)C1)C(F)(F)F [Compound A] | 19.2 | 18.2 | 11.8 | 16.7 | 18.5 | 13.3 | 30.1 | 20.3 | 18.5 | 19.4 | 7 | 7.25 | 5.97 | 4.69 | 3.94 | 6.95 | decreased | 97.1 | dose-dependent inhibition of PPIX accumulation | 43.5 |
| C[C@H](Oc1ccc(S(C)(=O)=O)cc1C(=O)N1Cc2cc(C(F)(F)F)cnc2C1)C(F)(F)F [Compound X] | 25 | 27.1 | 27.3 | 46.5 | 34.4 | 24.7 | 34.6 | 34.6 | 14.7 | 17.5 | 13.6 | 13.5 | 14.1 | 15.2 | 11 | 12.8 | decreased PPIX accumulation | 33.5 | dose-dependent inhibition of PPIX accumulation | 76.8 |
